Patent publication US5605901A, “Indane derivatives, processes for preparing the same and synthetic intermediate of the same” (Tanabe Seiyaku Co., Ltd., priority 1993, dated 1997)

Test: Action on rat glomerular nephritis (nephrotoxic serum-induced; protein excretion in urine)
Format: in vivo, rat (WKY strain)
Conditions: po, 30 mg/kg/10 ml orally twice a day for 8 days, NTS-induced nephritis, 24 hours urine collected after 7 days, read-out: Inhibition rate of excretion of protein in urine
Protocol: (Action on Rat Glomerular Nephritis)
Rabbits were immunized several times with a renal glomerular basement membrane fraction obtained from WKY strain rats and an adjuvant. Thereafter, blood was collected to obtain a nephrotoxic serum (NTS). This NTS was diluted by 50 times with physiological saline, and the diluted NTS was once administered intravenously to male WKY rats of 8 weeks old in a dose of 2.5 ml per 1 kg of body weight to induce nephritis. In normal group of rats, the same volume of physiological saline was intravenously administered.
In the experiment, one group consisted of 6 rats, and each compound to be tested was suspended in water with small amount of Tween 80 (trade name, produced by Nacalai Tesque Co.), and was orally administered to the test group of rats at a dose of 30 mg/kg/10 ml twice a day for 8 days. In normal group and control group of rats, the same volume of water was orally administered instead of the test compound. After 7 days, the rats were placed in metabolic cages and urine was collected for 24 hours. Concentrations of protein in urine were measured by the sulfosalicylic acid method to determine amounts of protein excreted in the urine (mg/day). The inhibition rate of excretion of protein were calculated by the following equation. [formula]
`Nc1ncccc1C(=O)NCCC1Cc2ccc(-c3ccc(=O)[nH]n3)cc2C1` (stereo not drawn) [Example 129] gave an inhibition in vivo at 30 mg/kg of 98.9%.
For `C=CC(=O)NCCCCC1Cc2ccc(-c3ccc(=O)[nH]n3)cc2C1` (stereo not drawn) [Example 63], the inhibition in vivo at 30 mg/kg was 61.6%.
Compound `CCCC(=O)NC1Cc2ccc(-c3ccc(=O)[nH]n3)cc2C1` (stereo not drawn) [Example 40, 2-butyrylamino-5-[pyridazin-3(2H)-on-6-yl]indane] has an inhibition in vivo at 30 mg/kg of 72.4%.
For `C=CC(=O)NCCCC1Cc2ccc(-c3ccc(=O)[nH]n3)cc2C1` (stereo not drawn) [Example 106], the inhibition in vivo at 30 mg/kg was 81%.
With `O=C(NCCC1Cc2ccc(-c3ccc(=O)[nH]n3)cc2C1)c1cccnc1` (stereo not drawn) [Example 110] the inhibition in vivo at 30 mg/kg was 91.8%.
For `CCCOC(=O)NC1Cc2ccc(-c3ccc(=O)[nH]n3)cc2C1` (stereo not drawn) [Example 48], the inhibition in vivo at 30 mg/kg was 60.3%.
Work on `O=C(NCC1Cc2ccc(-c3ccc(=O)[nH]n3)cc2C1)c1cccnc1` (stereo not drawn) [Example 60] yielded an inhibition in vivo at 30 mg/kg of 59.5%.
With `Cc1ncccc1C(=O)NCCC1Cc2ccc(-c3ccc(=O)[nH]n3)cc2C1` (stereo not drawn) [Example 127] the inhibition in vivo at 30 mg/kg was 93%.
Compound `O=C(NCCC1Cc2ccc(-c3ccc(=O)[nH]n3)cc2C1)c1ccncc1` (stereo not drawn) [Example 109] has an inhibition in vivo at 30 mg/kg of 67.4%.
For `C=CC(=O)NCCC1Cc2ccc(-c3ccc(=O)[nH]n3)cc2C1` (stereo not drawn) [Example 105], the inhibition in vivo at 30 mg/kg was 60.2%.
Compound `O=C1CCC(c2ccc3c(c2)CC(CCNC(=O)c2cccnc2)C3)=NN1` (stereo not drawn) [Example 148] has an inhibition in vivo at 30 mg/kg of 88.9%.

Test: Action of protecting mouse from death induced by endotoxin
Format: in vivo, mouse (ddy strain)
Conditions: 100 mg/kg orally, 30 min before endotoxin 100 mg/10 ml/kg i.p.; determined when control survival became 20 (about 20 hours)
Protocol: (Action of Protecting Mouse from Death Induced by Endotoxin)
To ddy strain male mice (one group: 10 mice) which had fasted for about 24 hours, each test sample dissolved or suspended in a 0.25% sodium carboxymethyl cellulose (CMC) aqueous solution was orally administered (100 mg/kg). After 30 minutes, 100 mg/10 ml/kg of endotoxin (lipopoly-saccharide) derived from Escherichia coli dissolved in physiological saline was administered intraperitoneally. When the survival rate of the control group to which the CMC aqueous solution had been orally administered became 20 (about 20 hours after administration of endotoxin), the survival rates of the groups to which the test samples had been administered were determined.
`CCCC(=O)NC1Cc2ccc(C3=NNC(=O)CC3)cc2C1` (stereo not drawn) [Example 11, 2-butyrylamino-5-[4,5-dihydropyridazin-3(2H)-on-6-yl]indane] showed a Survival rate of 100%.
Compound `O=C1CCC(c2ccc3c(c2)CC(NC(=O)c2ccccn2)C3)=NN1` (stereo not drawn) [Example 25] has a Survival rate of 80%.
For `CCCN(C(=O)OCc1ccccc1)C1Cc2ccc(C3=NNC(=O)CC3)cc2C1` (stereo not drawn) [Example 37], the Survival rate was 60%.
`O=C1CCC(c2ccc3c(c2)CC(NC(=O)c2cccnc2)C3)=NN1` (stereo not drawn) [Example 18] gave a Survival rate of 80%.
With `CCC(=O)NC1Cc2ccc(C3=NNC(=O)CC3)cc2C1` (stereo not drawn) [Example 12] the Survival rate was 90%.
For `O=C1CCC(c2ccc3c(c2)CC(NC(=O)c2cnccn2)C3)=NN1` (stereo not drawn) [Example 22], the Survival rate was 70%.
For `CCCN(C(=O)OCC(C)C)C1Cc2ccc(C3=NNC(=O)CC3)cc2C1` (stereo not drawn) [Example 35, 2-(N-propyl-N-isobutoxycarbonylamino)-5-[4,5-dihydropyridazin-3(2H)-on-6-yl]indane], the Survival rate was 80%.
